Test results from the OPERA property sets (Mansouri et al. 2018).
Peptide text beside a SMILES is read from it.

Compound	logP
CN1C(=O)CN=C(c2ccccc2)c2cc(C#N)ccc21	1.8
CC(=O)OCC(=O)[C@@]1(O)[C@H](OC(C)=O)C[C@H]2[C@@H]3CCC4=CC(=O)C=C[C@]4(C)[C@@]3(F)[C@@H](O)C[C@@]21C	1.92
C#CC(C)OC(=O)Nc1ccc(OCC)c(OCC)c1 (configuration not stated)	2.68
C=C(C)C(=O)OCCO	0.47
O=C1C=C(Cl)C(=O)c2ccccc21	2.29
CCC(C)(C)C	3.82
Clc1cc2ccccc2cc1Cl	4.42
CNC(=O)Oc1ccccc1Br	1.77
Nc1ccc(S)cc1	1.31
O=C(O)c1ccccc1C(=O)O	0.73
O=[N+]([O-])c1ccc2[nH]ccc2c1	2.53
Nc1nc2[nH]cnc2c(=O)[nH]1	-0.91
CCNc1nc(NCC(C)C)nc(SC(F)F)n1	4.3
CCOC(=O)CC(SP(=S)(OC)OC)C(=O)OCC (configuration not stated)	2.36
O=[N+]([O-])C=Cc1ccc(Cl)cc1Cl	3.26
CC(C)c1ccc(O)c(=O)cc1	1.89
COc1ccc(Cl)cc1	2.78
O=C(O)CCCC(=O)O	-0.29
On1nc2ccccc2n1	0.69
O=C(O)CCC(Nc1ccc(Br)cc1)C(=O)O (configuration not stated)	1.12
CCCCC(=O)Nc1ccccc1	2.61
Nc1cc(Cl)c(Cl)c(Cl)c1	3.32
COC(=O)c1cccc(N2C(=O)CCC2=O)c1	0.36
COC1CC(OC2CCC3(C)C(CCC4C3CCC3(C)C(C5=CC(=O)OC5)C(OC(C)=O)CC43O)C2)OC(C)C1OC(C)=O (configuration not stated)	2.95

Compound	logP
CCCCCCCCl	4.15
O=C(Nc1ccccc1)NC1CC1	1.65
COc1ccc(CN(C)N=O)cc1	1.62
CC(=O)N[C@@H](Cc1ccccc1)C(=O)N[C@@H](CCC(N)=O)C(N)=O	-1.03
CN(C)C(=O)c1ccccc1	0.62
CCC(C)c1cc([N+](=O)[O-])cc(C(C)CC)c1O (configuration not stated)	4.8
CN(C)N=Nc1cccc(Cl)c1	3.44
O=C(Oc1ccccc1)Oc1ccccc1	3.28
CCCCc1ccc(C(=O)O)cc1	3.97
O=C(O)c1ccccc1[N+](=O)[O-]	1.46
c1cncc(CN2CCCC2)c1	1.1
CC(=O)N[C@@H](C)C(=O)N[C@@H](CC(C)C)C(N)=O (Ac-Ala-Leu-NH2)	-0.54
CN=C(O)Oc1cccc(C)c1	1.7
O=c1[nH]cnc2nc[nH]c12	-1.11
CN(CC(O)COc1ccccc1)CC(O)COc1ccccc1 (configuration not stated)	2.92
BrCCBr	1.96
NC(=O)c1cc(N2CC2)c([N+](=O)[O-])cc1[N+](=O)[O-]	-0.02
NC(=O)c1cccc2[nH]ccc12	0.66
OC(CF)CF	-0.36
CNC(=O)ON=Cc1ccccc1	1.49
COC(OC)(OC)c1ccccc1	2.27
CCCCOC(=O)n1cnc(CSCCNC(=NC#N)NC)c1C	2.15
O=Cc1ccc[nH]1	0.64
CCCCNc1ccc(C(=O)OCCOCCOCCOCCOCCOCCOCCOCCOCCOC)cc1	2.45

Compound	logP
CCN(CC)CCc1cccnc1	1.23
NS(=O)(=O)c1cc2c(cc1Cl)NC(Cc1ccccc1)NS2(=O)=O (configuration not stated)	0.93
CC(=O)N[C@@H](CC(C)C)C(=O)N[C@H](C(N)=O)C(C)C (Ac-Leu-Val-NH2)	0.26
CC(C)OC(=O)n1cnc(CC(NC(=O)C2CCC(=O)N2)C(=O)N2CCCC2C(N)=O)c1 (configuration not stated)	-0.8
COc1cccc(C(C)=O)c1	1.84
C1COCCO1	-0.27
CNC(=NC#N)NCCSCc1ncccc1OC	0.97
O=[N+]([O-])c1nccn1C1OC(CI)C(O)C1O (configuration not stated)	0.32
CC1(O)CC23C(O)C1CCC2(O)C(C)(O)C1C2OC2C(C)(C)C1(O)C(O)C3O (configuration not stated)	-0.57
C=CC=C	1.99
CC(=O)C(=Cc1ccc(Cl)cc1)C(C)=O	2.32
O=C(O)Cc1cccc(I)c1	2.62
NC(=O)CCOc1ccccc1	0.8
CCCOc1ccc(O)cc1	2.33
c1nc[nH]n1	-0.58
NNC(=O)c1ccnc(-c2ccccc2)c1	1.36
C=CCOc1ccccc1	2.94
Cc1ccc2cccc(O)c2n1	2.33
CCc1cccc(CC)c1N(COC)C(=O)CCl	3.52
N=C(N)c1ccc(N)cc1	-0.37
CC1CC2C3CCC4=CC(=O)C=CC4(C)C3(F)C(=O)CC2(C)C1(O)C(=O)CCl (configuration not stated)	2.61
CC(C)(S)[C@@H](N)C(=O)O	-1.78
CCOC(=O)c1ccc(NC(=O)N(C)OC)cc1	2.24
Cc1ccccc1NS(=O)(=O)c1ccc(N)cc1	2.03

Compound	logP
N#CC#N	0.07
CCOC=O	0.23
Oc1ccc2cccc(O)c2c1	1.94
O=C(O)C1c2ccccc2Sc2ccccc21	2.57
O=C(CN1CCCCC1)Nc1cccc(Br)c1	3.62
CCCCCCCC(=O)O	3.05
CC1(C)S[C@@H]2[C@H](NC(=O)COc3ccccc3)C(=O)N2[C@H]1C(=O)O	2.09
Cc1c(Cl)cc(-c2ccc(=O)[nH]n2)cc1Cl	3.2
OCc1ccc(O)cc1	0.25
CCOC(=O)C(=O)OCC	0.56
CC(=O)c1ccncc1	0.48
O=S(=O)(CF)Nc1ccccc1	1.35
CC(=O)Nc1cccnc1	0.41
CCOCc1ccccc1NC(=O)OCCN1CCCCC1	2.72
N#C/C=C/C#N	-0.25
CCC(C)c1ccc(OCC(=O)O)cc1 (configuration not stated)	3.12
CS(=O)(=O)c1c(F)c(F)c(F)c(F)c1F	1.11
CCC(=O)OC1(C(=O)CCl)C(C)CC2C3CCC4=CC(=O)C=CC4(C)C3(F)C(=O)CC21C (configuration not stated)	3.46
Nc1ccc(C(=O)O)c(I)c1	1.65
O=C1C=CC(=O)c2c(O)cccc21	1.92
Nc1ccc(Cl)cc1	1.83
CCOP(=O)(OCC)SCSCC	2.07
C#Cc1ccccc1	2.53
c1ccc(Cn2cnnc2)cc1	0.74

Compound	logP
CCCNC(=O)NS(=O)(=O)c1ccc(Cl)cc1	2.27
Nc1ccc(-c2nc([N+](=O)[O-])c[nH]2)cc1	0.86
CC(C)(C)c1ccccc1	4.11
CC(=O)NO	-1.59
Nc1nc(N)nc(-c2ccc([N+](=O)[O-])cc2)n1	1.6
Cc1ccc2ncccc2c1	2.57
Nc1ccc([N+](=O)[O-])cc1N	0.88
COC(=O)c1ccccc1Cl	2.38
CCCCCCCCCCCCCC[n+]1ccccc1.[Br-]	1.32
CCOC(=O)C(=O)c1cccs1	1.77
CC(C)NC(=O)c1cccnc1	0.59
CC(=O)NC(Cc1ccccc1)C(N)=O (configuration not stated)	-0.04
O=c1cc[nH]c2cc(C(F)(F)F)ccc12	2.05
c1ccc2c(c1)CCCC2	3.49
CCOC(=O)C(=Cc1cccc(C)c1)C(=O)OCC	3.55
Nc1ccccc1[N+](=O)[O-]	1.85
Clc1ccc(Cl)cc1	3.44
CC(C)Nc1nc(NC(C)C)nc(SC(F)F)n1	4.25
CCCCl	2.04
O=C1C=C(N2CC2)C(=O)c2ccccc21	1.71
CNC(=O)Oc1cc(C)c(C)cc1C	2.52
ClCC(Cl)Cl	1.89
COc1ccc(C(O)C(C(=O)O)c2ccc(-c3ccccc3)cc2)cc1 (configuration not stated)	3.59
Nc1cccnc1	0.11

Compound	logP
CSc1ccc(COC(=O)N(C)C)cc1	2.86
Oc1cnc2ccccc2c1	2.08
Brc1cc(Br)c(Br)cc1Br	5.13
CNc1ccc(C)cc1	2.15
CC=CC (mixture of isomers)	2.33
O=[N+]([O-])c1ccc(Cl)c(Cl)c1	3.12
CCOP(=S)(OCC)Oc1ccc(Cl)cc1Cl	5.14
NC(CC12CC3CC(CC(C3)C1)C2)C(=O)O (configuration not stated)	0.43
COc1ccccc1NCCO	1.5
c1ccc(NC2=NCCN2)cc1	1.01
CCC1(CC)C(=O)NC(=O)N(C)C1=O	1.15
Nc1nc2nn[nH]c2c(=O)[nH]1	-0.71
Oc1ccccc1-c1ccccc1	3.09
CCCCC1(c2ccncc2)CCC(=O)NC1=O (configuration not stated)	1.68
NC(Cc1ccc(O)c(O)c1)C(=O)OCc1cccc(C(F)(F)F)c1 (configuration not stated)	2.29
OCCN1CCN(CCC=C2c3ccccc3Sc3ccc(C(F)(F)F)cc32)CC1	4.51
COP(=O)(OC)OC(=CCl)c1cc(Cl)c(Cl)cc1Cl	3.53
CNC(=S)N(C)C	0.1
CCc1ccc(OC(C)=O)cc1	2.56
O=C(OCCCc1cnc[nH]1)c1ccccc1	2.64
C=CCCC=C	2.87
Nc1ccccc1	0.9
COc1c(O)c(OC)c(OC)c(O)c1OC	0.39
O=C(CN1CCCCC1)Nc1cccc([N+](=O)[O-])c1	2.59

Compound	logP
c1ccc2cnccc2c1	2.08
COC(=O)c1ccccc1C	2.75
CCOC(=O)C(=Cc1ccc(Br)cc1)C(=O)OCC	4.02
CCCCCCc1ccc(O)cc1O	3.45
O=C(Nc1ccc(Cl)c(Cl)c1)C1CC1	3.83
CCCCCC(=O)NN	0.48
c1ccc2[nH]nnc2c1	1.44
FC(F)(F)c1cccc(C2CNCCO2)c1 (configuration not stated)	2.18
O=C(O)COc1ccc(S(=O)(=O)F)cc1	1.82
O=[N+]([O-])c1nccn1CCO	-0.47
Cc1cccc(S(I)=C(N(C)C)N(C)C)c1 (configuration not stated)	-0.14
CC(C)C(=O)NN	-0.63
COc1cc(S(C)=O)ccc1-c1nc2ncncc2[nH]1 (configuration not stated)	0.53
CCN(CC)CCOC(=O)c1ccc(N)cc1Cl	2.86
O=Nc1c(O)ccc2ccccc12	2.28
CCCCCn1cnc2c(N)ncnc21	1.79
CC1(C)S[C@@H]2[C@H](NC(=O)C(C(=O)O)c3ccccc3)C(=O)N2[C@H]1C(=O)O (some centres not stated)	1.13
C#CC(C)(C)O	0.28
CCOC(=O)CON=Cc1ccc(OCC(=O)OCC)c(OC)c1	1.87
Clc1ccc(-c2cc(Cl)c(Cl)cc2Cl)cc1	6.67
O=NN1CCNCC1	0.18
OC(Cn1ccnc1)c1ccc(CCc2ccccc2)cc1 (configuration not stated)	3.4
CCCC(NC(C)=O)C(=O)OC (configuration not stated)	0.33
